Legend:
Format in all cases: cell-based
[1] = molecular target: T1, D3R (Homo sapiens, UniProt P35462); test: BRET-based Go protein activation assay at D3R (10 min); conditions: for Selectivity (D2R/D3R) Go Protein Activation: D3R over D2R selectivity; for EC50: read-out: Go Protein Activation Assay pEC50 ± SEM (converted); for Bias Factors D3R: Go protein vs β-arrestin, log10(Emax/EC50)G protein − log10(Emax/EC50)β arrestin
T1 construct: expressed in transfected cells; host or cells: HEK293T
Target sequence in this assay (P35462 whole entry): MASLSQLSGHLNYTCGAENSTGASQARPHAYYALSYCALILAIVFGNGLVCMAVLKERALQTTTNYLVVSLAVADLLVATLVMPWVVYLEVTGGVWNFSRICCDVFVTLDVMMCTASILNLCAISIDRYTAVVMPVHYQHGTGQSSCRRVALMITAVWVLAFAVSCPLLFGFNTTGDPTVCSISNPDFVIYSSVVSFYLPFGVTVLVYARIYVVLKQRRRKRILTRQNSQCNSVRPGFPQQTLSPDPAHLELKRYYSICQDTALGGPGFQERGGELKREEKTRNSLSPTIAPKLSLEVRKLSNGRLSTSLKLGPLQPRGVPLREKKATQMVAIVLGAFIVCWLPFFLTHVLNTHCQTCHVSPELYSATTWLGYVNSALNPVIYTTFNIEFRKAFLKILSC

[2] = molecular target: T1, D3R; test: BRET-based β-arrestin recruitment assay at D3R (10 min); conditions: D3R; for EC50: read-out: β-arrestin Recruitment pEC50 ± SEM (converted)
Target sequence in this assay (P35462 whole entry): as above
Target sequence in this assay (P32121 whole entry partner): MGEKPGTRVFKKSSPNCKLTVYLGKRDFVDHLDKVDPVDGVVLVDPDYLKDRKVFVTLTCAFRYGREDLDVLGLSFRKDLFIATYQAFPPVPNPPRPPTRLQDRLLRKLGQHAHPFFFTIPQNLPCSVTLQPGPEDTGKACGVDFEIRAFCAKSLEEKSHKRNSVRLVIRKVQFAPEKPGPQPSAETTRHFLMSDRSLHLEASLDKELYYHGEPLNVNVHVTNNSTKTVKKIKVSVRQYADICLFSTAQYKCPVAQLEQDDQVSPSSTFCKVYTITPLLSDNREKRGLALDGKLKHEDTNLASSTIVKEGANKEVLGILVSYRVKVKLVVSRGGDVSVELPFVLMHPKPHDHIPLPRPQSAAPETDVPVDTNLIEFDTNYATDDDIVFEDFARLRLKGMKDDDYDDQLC

[3] = molecular target: T2, D2R (Homo sapiens, UniProt P14416); test: BRET-based Go protein activation assay at D2R (10 min); conditions: 10 min; for EC50: read-out: Go Protein Activation Assay pEC50 ± SEM (converted); for Bias Factors D2R: Go protein vs β-arrestin, log10(Emax/EC50)G protein − log10(Emax/EC50)β arrestin
T2 construct: expressed in transfected cells; host or cells: HEK293T
Target sequence in this assay (P14416 whole entry): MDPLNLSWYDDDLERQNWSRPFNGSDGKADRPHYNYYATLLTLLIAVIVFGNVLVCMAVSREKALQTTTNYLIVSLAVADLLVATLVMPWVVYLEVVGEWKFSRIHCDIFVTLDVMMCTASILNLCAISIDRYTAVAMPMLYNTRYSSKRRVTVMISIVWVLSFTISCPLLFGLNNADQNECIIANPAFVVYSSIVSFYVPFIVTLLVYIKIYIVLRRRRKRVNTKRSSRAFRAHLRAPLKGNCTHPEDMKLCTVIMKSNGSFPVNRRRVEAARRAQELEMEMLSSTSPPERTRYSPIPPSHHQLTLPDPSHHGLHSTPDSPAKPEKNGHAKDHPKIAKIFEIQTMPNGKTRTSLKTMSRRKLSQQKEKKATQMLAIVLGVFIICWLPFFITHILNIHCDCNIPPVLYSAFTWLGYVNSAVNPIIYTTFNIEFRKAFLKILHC

[4] = molecular target: T2, D2R; test: BRET-based β-arrestin recruitment assay at D2R (10 min); conditions: D2R, 10 min; for EC50: read-out: β-arrestin Recruitment pEC50 ± SEM (converted)
Target sequence in this assay (P14416 whole entry): as above
Target sequence in this assay (P32121 whole entry partner): as the sequence (P32121 whole entry partner) above

SMILES	Go Protein Activation Assay Change Emax over Quinpirole ([1]; D3R)	Go Protein Activation Assay Emax ± SEM (% of Quinpirole) ([1]; D3R)	Go Protein Activation Assay Fold Potency over Quinpirole ([1]; D3R) [fold]	Selectivity (D2R/D3R) Go Protein Activation [1] [fold]	EC50 ([1]; D3R) [nM]	Bias Factors D3R [1]	β-arrestin Recruitment Change Emax over Quinpirole [2]	β-arrestin Recruitment Fold Potency over Quinpirole [2] [fold]	EC50 [2] [nM]	Go Protein Activation Assay Change Emax over Quinpirole ([3]; D2R)	Go Protein Activation Assay Emax ± SEM (% of Quinpirole) ([3]; D2R)	Go Protein Activation Assay Fold Potency over Quinpirole ([3]; D2R) [fold]	EC50 ([3]; D2R) [nM]	Bias Factors D2R [3]	β-arrestin Recruitment Change Emax over Quinpirole [4]	β-arrestin Recruitment Emax ± SEM (% of Quinpirole) [4]	β-arrestin Recruitment Fold Potency over Quinpirole [4] [fold]	EC50 [4] [nM]	other results
C[C@H]1CO[C@H](c2ccc(N)nc2)CN1CCCCOc1ccc2c(c1)NC(=O)CC2 [AB04-95]																			D3R mediated Go protein activation (result in words) ([1]; D3R): near complete abolishment; D3R mediated β-arrestin recruitment (result in words) [2]: near complete abolishment; Activity in D2R Go protein activation (result in words) ([3]; D2R): did not show any activity; Activity in D2R β-arrestin recruitment (result in words) [4]: did not show any activity
C[C@H]1COC(c2ccc(N)nc2)CN1CCCCOc1ccc2c(c1)NC(=O)CC2 (mixture of isomers) [rac-AB04-35]	−6.1	93.9 ± 3.0 ^δδδδ % of Quinpirole	0.051	5.8	57.5	0.9	−5.2	0.009	490	−24.10	75.9 ± 5.3 % of Quinpirole	0.10	331	0.6	2.80	102.8 ± 2.5 % of Quinpirole	0.06	1820	β-arrestin Recruitment Emax ± SEM (% of Quinpirole) [2]: 94.8 ± 3.7 ^δδ % of Quinpirole
C[C@H]1CO[C@@H](c2ccc(N)nc2)CN1CCCCOc1ccc2c(c1)NC(=O)CC2 [AB04-96]	0.4	100.4 ± 2.7 ^δδδδ % of Quinpirole	0.158	2.8	18.6	1.0	4.0	0.025	174	2.70	102.7 ± 4.0 % of Quinpirole	0.66	52.5	1.1	21.6	121.6 ± 8.2 % of Quinpirole	0.16	724	Higher efficacy compared to quinpirole in D2R mediated β-arrestin recruitment [4]: ~ 22%

Source: PMC8069330, “Chirality of Novel Bitopic Agonists Determines Unique Pharmacology at the Dopamine D3 Receptor” (Biomolecules, 2021)
